Among the test systems are CAKI-1 renal; HCC-2998 colon; HOP-62 NSCLC; HOP-92 NSCLC; HT29 colon; IGROV1 ovarian; OVCAR-5 ovarian; SK-MEL-28 melanoma; SN12C renal; UACC-257 melanoma; UACC-62 melanoma.
What all share (experiment): DTP human tumour cell line panel, 48 h

Data on five compounds can be found in PubChem BioAssay (NCI).

SMILES strings stand for the structures.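 Briefly, cells in 96-well plates were exposed to five compound concentrations for 48 h, and endpoints were estimated by linear interpolation. TGI is the concentration that stops growth completely.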 Some results are limits rather than exact numbers.

The term TGI denotes the concentration at which net growth stops. Read a high TGI as less potent growth arrest. With `Nc1nc2c(c(=O)[nH]1)N(C=O)C(CNc1ccc(C(=O)N[C@@H](CCC(=O)O)C(=O)O)cc1)CN2` (stereo not given in full), the TGI in the test on CAKI-1 renal, in the test with HCC-2998 colon, with HOP-62 NSCLC, with HOP-92 NSCLC, in the test with HT29 colon and in the test on IGROV1 ovarian was more than 125 µM throughout. For the same compound, the TGI with OVCAR-5 ovarian, with SK-MEL-28 melanoma, in the test with SN12C renal, in the test on UACC-257 melanoma and in the test on UACC-62 melanoma was more than 125 µM throughout.
With `CC1(C)[C@@H](Cn2cnc3c(N)ncnc32)CC[C@@]1(C)CO`, the TGI in the test on CAKI-1 renal, with HCC-2998 colon, in the test on HOP-62 NSCLC, in the test with HOP-92 NSCLC, in the test on HT29 colon and in the test on IGROV1 ovarian was more than 100 µM throughout. The TGI in the test on OVCAR-5 ovarian, in the test on SK-MEL-28 melanoma, with SN12C renal, with UACC-257 melanoma and with UACC-62 melanoma was more than 100 µM each time.
As for `ClC(Cl)(Cl)C1=N[C@H]2[C@H](Br)[C@@H]3O[C@@H](c4ccccc4)[C@H](c4ccccc4)O[C@@H]3[C@H]2O1`, the TGI in the test on CAKI-1 renal is 32.6 µM; in the test with HCC-2998 colon it was 28.5 µM; with HOP-62 NSCLC, 41.3 µM; in the test with HOP-92 NSCLC it was 31.5 µM; with HT29 colon it was 58.1 µM; in the test on IGROV1 ovarian, 30.9 µM. Further, the concentration for total growth inhibition (TGI) in the test on OVCAR-5 ovarian was found to be 37.5 µM; with SK-MEL-28 melanoma, 37.1 µM; in the test with SN12C renal it was 37.2 µM; with UACC-257 melanoma, 37.3 µM; in the test with UACC-62 melanoma, 31.5 µM.
In the case of `CCN(CC)CCCOC(=O)/C=C/c1c(C)[nH]c(=O)[nH]c1=O`, the TGI with CAKI-1 renal is more than 625 µM; with HCC-2998 colon, more than 625 µM; with HOP-62 NSCLC, more than 625 µM; with HOP-92 NSCLC, more than 625 µM; with HT29 colon it was more than 394 µM; with IGROV1 ovarian, more than 625 µM. In addition, the total growth inhibition concentration (TGI) in the test on OVCAR-5 ovarian was more than 625 µM; with SK-MEL-28 melanoma it was more than 625 µM; in the test on SN12C renal it was more than 463 µM; with UACC-257 melanoma it was more than 625 µM; with UACC-62 melanoma it was more than 625 µM.
As to `Cc1sc2nc(-c3cc([N+](=O)[O-])c(Cl)cc3Cl)c(/C=N/N=C(N)N)n2c1C`, the TGI in the test with CAKI-1 renal was 33.9 µM; in the test with HCC-2998 colon it was 5.39 µM; with HOP-62 NSCLC, more than 100 µM; in the test on HOP-92 NSCLC it was 31.5 µM; in the test on HT29 colon it was 9 µM; with IGROV1 ovarian, 9.12 µM. In addition, the TGI in the test with OVCAR-5 ovarian was more than 100 µM; in the test with SK-MEL-28 melanoma, 6.58 µM; in the test with SN12C renal, 28.5 µM; in the test on UACC-257 melanoma, 26 µM; in the test with UACC-62 melanoma, 39.5 µM.
